Columns and labels:
Assay type in all cases: functional
MDA-MB-468 = test: Cytotoxicity against human MDA-MB-468 cells assessed as cellular growth at 10 uM after 48 hrs by SRB assay relative to control
BT-549 = test: Cytotoxicity against human BT549 cells assessed as cellular growth at 10 uM after 48 hrs by SRB assay relative to control
T47D = test: Cytotoxicity against human T47D cells assessed as cellular growth at 10 uM after 48 hrs by SRB assay relative to control
MCF7 = test: Cytotoxicity against human MCF7 cells assessed as cellular growth at 10 uM after 48 hrs by SRB assay relative to control
UO-31 = test: Cytotoxicity against human UO31 cells assessed as cellular growth at 10 uM after 48 hrs by SRB assay relative to control
PC-3 = test: Cytotoxicity against human PC3 cells assessed as cellular growth at 10 uM after 48 hrs by SRB assay relative to control
TK-10 = test: Cytotoxicity against human TK10 cells assessed as cellular growth at 10 uM after 48 hrs by SRB assay relative to control
SN12C = test: Cytotoxicity against human SN12C cells assessed as cellular growth at 10 uM after 48 hrs by SRB assay relative to control
RXF 393 = test: Cytotoxicity against human RXF393 cells assessed as cellular growth at 10 uM after 48 hrs by SRB assay relative to control
CAKI-1 = test: Cytotoxicity against human Caki1 cells assessed as cellular growth at 10 uM after 48 hrs by SRB assay relative to control
ACHN = test: Cytotoxicity against human ACHN cells assessed as cellular growth at 10 uM after 48 hrs by SRB assay relative to control
OVCAR-8 = test: Cytotoxicity against human OVCAR8 cells assessed as cellular growth at 10 uM after 48 hrs by SRB assay relative to control
[1] = Cytotoxicity against human NCI-ADR-RES cells assessed as cellular growth at 10 uM after 48 hrs by SRB assay relative to control
OVCAR-5 = test: Cytotoxicity against human OVCAR5 cells assessed as cellular growth at 10 uM after 48 hrs by SRB assay relative to control
OVCAR-4 = test: Cytotoxicity against human OVCAR4 cells assessed as cellular growth at 10 uM after 48 hrs by SRB assay relative to control
OVCAR-3 = test: Cytotoxicity against human OVCAR3 cells assessed as cellular growth at 10 uM after 48 hrs by SRB assay relative to control
UACC-62 = test: Cytotoxicity against human UACC62 cells assessed as cellular growth at 10 uM after 48 hrs by SRB assay relative to control
UACC-257 = test: Cytotoxicity against human UACC257 cells assessed as cellular growth at 10 uM after 48 hrs by SRB assay relative to control
SK-MEL-5 = test: Cytotoxicity against human SK-MEL-5 cells assessed as cellular growth at 10 uM after 48 hrs by SRB assay relative to control
SK-MEL-2 = test: Cytotoxicity against human SK-MEL-2 cells assessed as cellular growth at 10 uM after 48 hrs by SRB assay relative to control
MDA-MB-435 = test: Cytotoxicity against human MDA-MB-435 cells assessed as cellular growth at 10 uM after 48 hrs by SRB assay relative to control
LOX IMVI = test: Cytotoxicity against human LOXIMVI cells assessed as cellular growth at 10 uM after 48 hrs by SRB assay relative to control
SNB-75 = test: Cytotoxicity against human SNB75 cells assessed as cellular growth at 10 uM after 48 hrs by SRB assay relative to control
U-251 = test: Cytotoxicity against human U251 cells assessed as cellular growth at 10 uM after 48 hrs by SRB assay relative to control
SF-539 = test: Cytotoxicity against human SF539 cells assessed as cellular growth at 10 uM after 48 hrs by SRB assay relative to control
SF-268 = test: Cytotoxicity against human SF268 cells assessed as cellular growth at 10 uM after 48 hrs by SRB assay relative to control
SF-295 = test: Cytotoxicity against human SF295 cells assessed as cellular growth at 10 uM after 48 hrs by SRB assay relative to control
KM12 = test: Cytotoxicity against human KM12 cells assessed as cellular growth at 10 uM after 48 hrs by SRB assay relative to control
HT-29 = test: Cytotoxicity against human HT-29 cells assessed as cellular growth at 10 uM after 48 hrs by SRB assay relative to control
HCC 2998 = test: Cytotoxicity against human HCC2998 cells assessed as cellular growth at 10 uM after 48 hrs by SRB assay relative to control
COLO 205 = test: Cytotoxicity against human COLO205 cells assessed as cellular growth at 10 uM after 48 hrs by SRB assay relative to control
NCI-H522 = test: Cytotoxicity against human NCI-H522 cells assessed as cellular growth at 10 uM after 48 hrs by SRB assay relative to control
NCI-H322M = test: Cytotoxicity against human NCI-H322M cells assessed as cellular growth at 10 uM after 48 hrs by SRB assay relative to control
NCI-H460 = test: Cytotoxicity against human NCI-H460 cells assessed as cellular growth at 10 uM after 48 hrs by SRB assay relative to control
NCI-H23 = test: Cytotoxicity against human NCI-H23 cells assessed as cellular growth at 10 uM after 48 hrs by SRB assay relative to control
NCI-H226 = test: Cytotoxicity against human NCI-H226 cells assessed as cellular growth at 10 uM after 48 hrs by SRB assay relative to control
HOP-92 = test: Cytotoxicity against human HOP92 cells assessed as cellular growth at 10 uM after 48 hrs by SRB assay relative to control
A549 = test: Cytotoxicity against human A549 cells assessed as cellular growth at 10 uM after 48 hrs by SRB assay relative to control
RPMI-8226 = test: Cytotoxicity against human RPMI8226 cells assessed as cellular growth at 10 uM after 48 hrs by SRB assay relative to control
SR = test: Cytotoxicity against human SR cells assessed as cellular growth at 10 uM after 48 hrs by SRB assay relative to control
MOLT-4 = test: Cytotoxicity against human MOLT4 cells assessed as cellular growth at 10 uM after 48 hrs by SRB assay relative to control
HL-60(TB) = test: Cytotoxicity against human HL-60(TB) cells assessed as cellular growth at 10 uM after 48 hrs by SRB assay relative to control
CCRF-CEM = test: Cytotoxicity against human CCRF-CEM cells assessed as cellular growth at 10 uM after 48 hrs by SRB assay relative to control

SMILES: O=C(O)CCCn1c2c(sc3ccccc32)c(=O)n2nnc(-c3ccccc3)c12
- Activity (MDA-MB-468): 85.92%
- Activity (BT-549): 54.36%
- Activity (T47D): 78.01%
- Activity (MCF7): 84.04%
- Activity (UO-31): 69.07%
- Activity (PC-3): 89.28%
- Activity (TK-10): 98.3%
- Activity (SN12C): 88.81%
- Activity (RXF 393): 51.92%
- Activity (CAKI-1): 60.48%
- Activity (ACHN): 79.06%
- Activity (OVCAR-8): 77.77%
- Activity [1]: 107.52%
- Activity (OVCAR-5): 154.53%
- Activity (OVCAR-4): 93.19%
- Activity (OVCAR-3): 103.59%
- Activity (UACC-62): 75.64%
- Activity (UACC-257): 111.46%
- Activity (SK-MEL-5): 79.01%
- Activity (SK-MEL-2): 107.41%
- Activity (MDA-MB-435): 89.16%
- Activity (LOX IMVI): 94.14%
- Activity (SNB-75): 83%
- Activity (U-251): 94.66%
- Activity (SF-539): 91.17%
- Activity (SF-268): 91.25%
- Activity (SF-295): 92.89%
- Activity (KM12): 86.08%
- Activity (HT-29): 92.57%
- Activity (HCC 2998): 96.03%
- Activity (COLO 205): 110.27%
- Activity (NCI-H522): 34.84%
- Activity (NCI-H322M): 86.21%
- Activity (NCI-H460): 74.3%
- Activity (NCI-H23): 118.45%
- Activity (NCI-H226): 82.97%
- Activity (HOP-92): 107.65%
- Activity (A549): 89.47%
- Activity (RPMI-8226): 93.76%
- Activity (SR): 117.58%
- Activity (MOLT-4): 96.85%
- Activity (HL-60(TB)): 113.58%
- Activity (CCRF-CEM): 92.35%

SMILES: O=C(CCCn1c2c(sc3ccccc32)c(=O)n2nnc(-c3ccccc3)c12)NCCc1c[nH]cn1
- Activity (MDA-MB-468): -93%
- Activity (BT-549): 4%
- Activity (T47D): -25.44%
- Activity (MCF7): -100%
- Activity (UO-31): -97%
- Activity (PC-3): -84.51%
- Activity (TK-10): -91%
- Activity (SN12C): -80%
- Activity (RXF 393): -70%
- Activity (CAKI-1): -83.98%
- Activity (ACHN): -84%
- Activity (OVCAR-8): -50.58%
- Activity [1]: 8%
- Activity (OVCAR-5): -91%
- Activity (OVCAR-4): -92.51%
- Activity (OVCAR-3): -96%
- Activity (UACC-62): -76%
- Activity (UACC-257): -69%
- Activity (SK-MEL-5): -67.14%
- Activity (SK-MEL-2): -90.32%
- Activity (MDA-MB-435): -95.09%
- Activity (LOX IMVI): -96%
- Activity (SNB-75): -89%
- Activity (U-251): -100%
- Activity (SF-539): -97.26%
- Activity (SF-268): -77%
- Activity (SF-295): -83%
- Activity (KM12): -90%
- Activity (HT-29): -100%
- Activity (HCC 2998): 25.66%
- Activity (COLO 205): -77%
- Activity (NCI-H522): -95.79%
- Activity (NCI-H322M): -34.11%
- Activity (NCI-H460): -93.2%
- Activity (NCI-H23): -54%
- Activity (NCI-H226): -14%
- Activity (HOP-92): -75.7%
- Activity (A549): -75.35%
- Activity (RPMI-8226): -4.25%
- Activity (SR): -64%
- Activity (MOLT-4): 79.44%
- Activity (HL-60(TB)): -29%
- Activity (CCRF-CEM): -58%

SMILES: CN1CCN(CCCn2c3c(sc4ncccc43)c(=O)n3nnc(-c4ccccc4)c23)CC1
- Activity (MDA-MB-468): -94%
- Activity (BT-549): 76%
- Activity (T47D): 103%
- Activity (MCF7): -91%
- Activity (UO-31): -90.79%
- Activity (PC-3): -3.82%
- Activity (TK-10): -88%
- Activity (SN12C): -55%
- Activity (RXF 393): -93%
- Activity (CAKI-1): -79%
- Activity (ACHN): -77%
- Activity (OVCAR-8): -48.18%
- Activity [1]: -29%
- Activity (OVCAR-5): -15%
- Activity (OVCAR-4): -65%
- Activity (OVCAR-3): -83.15%
- Activity (UACC-62): 85%
- Activity (UACC-257): -87%
- Activity (SK-MEL-5): -98%
- Activity (SK-MEL-2): 99.31%
- Activity (MDA-MB-435): -81%
- Activity (LOX IMVI): -96.04%
- Activity (SNB-75): 48%
- Activity (U-251): -84%
- Activity (SF-539): -95.99%
- Activity (SF-268): -77%
- Activity (SF-295): -79%
- Activity (KM12): -79%
- Activity (HT-29): -46.19%
- Activity (HCC 2998): -87%
- Activity (COLO 205): -82%
- Activity (NCI-H522): -76%
- Activity (NCI-H322M): -76%
- Activity (NCI-H460): -70.68%
- Activity (NCI-H23): -39%
- Activity (NCI-H226): 71%
- Activity (HOP-92): 42%
- Activity (A549): -74.7%
- Activity (RPMI-8226): -48%
- Activity (SR): -50%
- Activity (MOLT-4): -50%
- Activity (HL-60(TB)): -56%
- Activity (CCRF-CEM): -45%

— ChEMBL document CHEMBL2401728, “An unexpected Dimroth rearrangement leading to annelated thieno[3,2-d][1,2,3]triazolo[1,5-a]pyrimidines with potent antitumor activity” (Eur J Med Chem, 2013)
